# Legend:
# L1210 cells = assay: Uptake of dye by L1210 cells; type: cell-based, murine; conditions: for Dye Uptake by L1210 Cells: 1 hour at 37° C. in the dark, 12% FBS
# Procedure: L1210 cells were suspended at a concentration of 1.0×10^6 cells/mL in HEPES-buffered (10 mM, pH 7.4) alpha-medium supplemented with FBS (12%), and the TAM^+dyes were added from 1.0×10^−4M stock solutions in 50% ethanol to final concentrations of […]. The cells were subsequently incubated in the dark for 1 hour at 37° C., pelleted, washed with dye-free medium, and extracted with ethanol (1 mL per […]). The dye content of each extract was determined spectrophotometrically using calibration curves assembled using suitable dilutions of authentic dye in ethanol extracts of cells that had been incubated in dye-free medium.
# murine CFU-GM cells = assay: Dye-sensitized photoinactivation of normal hematopoietic CFU-GM cells, in vitro clonal assay; type: cell-based; conditions: 1.0×10^−6 M dye, 12% FBS, light up to 90 min (FIG. 3 lower panel)
# [1] = Photobleaching quantum efficiency of TAM+ dyes noncovalently bound to BSA (532-nm laser photolysis); type: physicochemical
# Procedure: Spectrophotometric studies were performed with a Shimadzu UV-2101PC spectrophotometer. 1-Octanol/water partition coefficients^18 (P), were determined at 25° C. using equal volumes of water and 1-octanol. Typically, five distinct solutions of each dye in the concentration range between 1 μM and 10 μM were prepared in deionized water and subsequently equilibrated with 1-octanol. After the equilibrium was reached, the final dye concentrations in the aqueous and/or organic phases were determined by absorption spectroscopy. For the measurement of photobleaching quantum efficiencies, the samples were placed in standard 10-mm (optical path) quartz cells at a distance of approximately 10 cm from the light source and photolyzed using the 532-nm line of an Nd:YAG laser model 7010 from Continuum operating at a repetition rate of 10 Hz. The defocused laser beam (circular profile with a diameter of about 5 mm) was directed to the center of the quartz cell. The absolute photolysis energy (or the number of 532-nm photons per laser pulse) was kept constant over the course of any specific experiment. The temperature-controlled cell holder allowed continuous magnetic stirring of the samples during photolysis. The photobleaching quantum efficiencies were based on the photobleaching efficiency of a classical chemical actinometer, potassium ferrioxalate, ^19,20 and determined considering only the first 5 to 10% decrease in dye concentration. The photolysis energy was adjusted to appropriate levels with the use of a calibrated solid-state joulemeter model PM30VI from Molectron.
# To explore how the photoreactivity of the TAM^+dyes in complex biologic environments correlates with the observed phototoxic effects toward tumor and normal cells, the photo-bleaching efficiency of TAM^+dyes noncovalently bound to a model biologic host (bovine serum albumin, BSA) was measured. For the case of CFU-GM cells, the efficacy of photoinduced cell destruction mediated by TAM^+dyes precisely paralleled the photochemical reactivity of these photosensitizers. Both, phototoxicity (FIG. 3, lower panel) and photoreactivity (Table 1) followed the decreasing order EV^+>VPBBO^+>CV^+>VBR^+.
# RBL cells = assay: Two-photon laser scanning microscopy of intracellular dye distribution; type: cell-based, rat; conditions: 0.2 μM dye; for intracellular distribution of dye fluorescence: 10 minutes incubation
# Procedure: RBL cells were incubated in the dark at a concentration of 1.1×10^5 cells/mL for periods ranging from 1 minute to 1 hour with fresh growth media containing 0.2 μM CV^+or Ev^+and subsequently incubated for 30 minutes in the dark with fresh growth media containing 0.05 μM Rh123; After a final cycle of washing and incubation for 15 minutes in fresh growth media, the media were replaced by modified Tyrode's solution containing 5 mM glucose and bovine serum albumin, and the cells were subjected to two-photon imaging. The examination of TAM^+accumulation into mitochondria was carried out through the comparison of the spatial distribution of the fluorescence of these dyes in the cellular environment with that of Rh123 (a classical mitochondrial marker^1,3) and the endogenous NAD(P)H. Fluorescence distributions within living RBL cells were obtained with a laser scanning multiphoton microscope (Bio-Rad MP1024). […] Three external detectors located in the Fourier plane of the microscope and equipped with appropriate sets of longpass dichroic and bandpass filters (from Chroma) were used for the simultaneous detection of two-photon excited fluorescence of NAD(P)H (400-500 nm), Rh123 (520-550 nm), and CV^+or EV^+(600-660 nm). To obtain sufficient fluorescence from CV^+,EV^+, and cellular NAD(P)H autofluorescence (all inefficient fluorophores), average excitation powers of approximately 18 mW were required. […]
# Two-photon laser scanning microscopy^22,28 was used to obtain information on intracellular distribution and mitochondrial accumulation of CV^+and EV^+in RBL cells. […] Simultaneous two-photon images of NAD(P)H, Rh123, and TAM^+fluorescence were obtained by exciting RBL cells at 750 nm with a Ti:Sapphire laser (75 fs, 80 MHz, 18 mW) as the excitation source. No morphologic alterations or induction of fluorescence attributed to cellular photodamage was observed during the brief imaging period (approximately 3 seconds), and the bleaching of the three fluorophores was also negligible during this period. […]
structure (smiles),measurement,setting,value
"CCN=C1C=CC(=C(c2ccc(N(C)C)cc2)c2ccc(N(C)C)cc2)c2ccccc21.Cl [VBR^+, victoria blue R]",Dye Uptake by L1210 Cells,L1210 cells,8.8e+07 molecules/cell
same,phototoxicity toward normal hematopoietic CFU-GM cells (in words),murine CFU-GM cells,lowest efficacy
"CN(C)c1ccc(C(=C2C=CC(=[N+](C)C)C=C2)c2ccc(N(C)C)cc2)cc1 [CV^+, crystal violet]","quantum efficiency of photobleaching, nitrogen-purged relative to air-equilibrated samples",[1]; BSA-bound,twofold higher
same,photobleaching efficiency of dimer relative to monomer,"[1]; BSA-bound, air-equilibrated",eightfold higher
same,photobleaching efficiency of BSA-bound dimer,"[1]; air-equilibrated samples, dimer",1.1×10^−4
same,photobleaching efficiency of BSA-bound monomer,"[1]; air-equilibrated samples, monomer",1.3×10^−5
same,Dye Uptake by L1210 Cells,L1210 cells,2.14e+08 molecules/cell
same,relative efficiency of uptake by L1210 cells (in words),L1210 cells; among the TAM+ dyes tested,most efficiently taken up by L1210 cells
same,phototoxicity toward normal hematopoietic CFU-GM cells (in words),murine CFU-GM cells,comparatively small toxic effects
same,intracellular distribution of dye fluorescence,RBL cells,consistent with mitochondrial localization
same,effect on mitochondria after prolonged incubation,"RBL cells; 1 hour incubation, then 0.05 μM Rh123",mitochondrial inner membrane potential has been reduced
"CCN=C1C=CC(=C(c2ccc(N(CC)CC)cc2)c2ccc(N(CC)CC)cc2)c2ccccc21.Cl [VPBBO^+, victoria pure blue BO]",Dye Uptake by L1210 Cells,L1210 cells,1.16e+08 molecules/cell
same,phototoxicity toward normal hematopoietic CFU-GM cells (in words),murine CFU-GM cells,considerably more efficient in inactivating normal hematopoietic cells
same,phototoxicity toward normal hematopoietic CFU-GM cells (in words),murine CFU-GM cells; listed as VPBBO+,intermediate efficacy
"CCN(CC)c1ccc(C(=C2C=CC(=[N+](CC)CC)C=C2)c2ccc(N(CC)CC)cc2)cc1 [EV^+, ethyl violet]",Dye Uptake by L1210 Cells,L1210 cells,1.76e+08 molecules/cell
same,phototoxicity toward normal hematopoietic CFU-GM cells (in words),murine CFU-GM cells,phototoxic toward both cell lines
same,intracellular distribution of dye fluorescence,RBL cells,also accumulates into cell mitochondria
